Results from patent publication US9512120B2, “Microbicidally active imidazopyridine derivatives” (Syngenta Participations AG, priority 2013, dated 2016).

Key:
[1] = tested on: Puccinia recondita f. sp. Tritici; test: Puccinia recondita f. sp. tritici / wheat / leaf disc preventative (brown rust); type: in vivo; settings: foliar, wheat leaf segments cv Kanzler, inoculated 1 day after application, assessed 7-9 days after application, read-out: control of Puccinia recondita f. sp. Tritici (percent disease control compared to untreated)
Method in brief: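 Leaf segments of wheat cv Kanzler on agar were sprayed with formulated compound at 200 ppm and inoculated with spores 1 day later. Incubation was at 19° C, 75% relative humidity and 12/12 h light/dark. Activity was scored 7-9 days after application as percent disease control versus untreated.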

[2] = tested on: Thanatephorus cucumeris (Rhizoctonia solani); test: Thanatephorus cucumeris (Rhizoctonia solani) / liquid culture (foot rot, damping-off); type: cell-based; settings: PDB, 24° C., 3-4 days after application, read-out: control of Thanatephorus cucumeris (inhibition of growth, photometric)
Method in brief: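 Mycelial fragments in potato dextrose broth exposed to test compounds at 200 ppm (from DMSO solution), incubated at 24° C. Growth inhibition read photometrically 3-4 days after application.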

[3] = tested on: Botryotinia fuckeliana (Botrytis cinerea); test: Botryotinia fuckeliana (Botrytis cinerea) / liquid culture (gray mould); type: cell-based; settings: Vogels broth, 24° C., 3-4 days after application, read-out: control of Botryotinia fuckeliana (inhibition of growth, photometric)
Method in brief: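 Botrytis cinerea conidia in Vogels broth were added to test compound applied from DMSO at 200 ppm. Incubation at 24 °C; growth inhibition read photometrically 3-4 days after application.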

[4] = tested on: Mycosphaerella graminicola (Septoria tritici); test: Mycosphaerella graminicola (Septoria tritici) / liquid culture (Septoria blotch); type: cell-based; settings: Zymoseptoria tritici, PDB, 24° C., 4-5 days after application, read-out: control of Mycosphaerella graminicola (inhibition of growth, photometric)
Method in brief: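 Cryo-stored conidia in potato dextrose broth were added to compound in DMSO at 200 ppm in microtiter plates. Plates were incubated at 24 °C and growth inhibition was measured photometrically 4–5 days after application.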

[5] = tested on: Phaeosphaeria nodorum (Septoria nodorum); test: Phaeosphaeria nodorum (Septoria nodorum) / wheat / leaf disc preventative (glume blotch); type: in vivo; settings: Parastagonospora nodorum, foliar, wheat leaf segments cv Kanzler, inoculated 2 days after application, assessed 5-7 days after application, read-out: control of Phaeosphaeria nodorum (percent disease control compared to untreated)
Method in brief: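 Wheat leaf segments (cv Kanzler) on agar sprayed with compound at 200 ppm, inoculated with spores 2 days later. Incubated at 20° C., 75% relative humidity, 12/12 h light/dark; percent disease control versus untreated scored 5-7 days after application.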

[6] = tested on: Pyrenophora teres; test: Pyrenophora teres / barley / leaf disc preventative (net blotch); type: in vivo; settings: foliar, barley leaf segments cv Hasso, inoculated two days after application, assessed 5-7 days after application, read-out: control of Pyrenophora teres (disease control compared to untreated)
Method in brief: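 Barley cv Hasso leaf segments on agar sprayed with compound at 200 ppm, inoculated with spores two days later. Kept at 20 °C, 65% RH, 12/12 h light; disease control versus untreated scored 5-7 days after application.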

[7] = tested on: Puccinia recondita f. sp. Tritici; test: Puccinia recondita f. sp. tritici / wheat / leaf disc curative (brown rust); type: in vivo; settings: foliar, wheat leaf segments cv Kanzler, applied 1 day after inoculation, assessed 6-8 days after application, read-out: control of Puccinia recondita f. sp. Tritici (percent disease control compared to untreated)
Protocol: Puccinia recondita f. Sp. Tritici/Wheat/Leaf Disc Curative (Brown Rust): Wheat leaf segments cv Kanzler were placed on agar in 24-well plates. The leaf segments were inoculated with a spore suspension of the fungus. The plates were stored in darkness at 19° C. and 75% relative humidity. The formulated test compound diluted in water was applied at an application rate of 200 ppm 1 day after inoculation. […] Tritici at 200 ppm when compared to untreated control leaf disks under the same conditions, which show extensive disease development: 2, 13, 16, 23, 30, 61, 75, 89, 103, 173, 174

[8] = tested on: Blumeria graminis f. Sp. Tritici (Erysiphe graminis f. Sp. Tritici); test: Blumeria graminis f. sp. tritici / wheat / leaf disc preventative (powdery mildew on wheat); type: in vivo; settings: foliar, wheat leaf segments cv. Kanzler, inoculated 1 day after application, assessed 6-8 days after application, read-out: control of Blumeria graminis (percent disease control compared to untreated)
Method in brief: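 Wheat leaf segments (cv. Kanzler) on agar sprayed with formulated compound at 200 ppm, inoculated with powdery mildew 1 day later. Held at 20 °C, 60% RH, 24 h dark then 12 h/12 h light; percent disease control versus untreated scored 6-8 days after application.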

[9] = tested on: Fusarium graminearum, syn. Gibberella zeae; test: whole plant or invertebrate; type: in vivo; settings: in Triticum aestivum, 144 h, read-out: control of Gibberella zeae (preventative fungicidal activity)
[10] = tested on: Gaeumannomyces graminis; test: Gaeumannomyces graminis / liquid culture (take-all of cereals); type: cell-based; settings: PDB, 24° C., 4-5 days after application, read-out: control of Gaeumannomyces graminis (inhibition of growth, photometric)
Method in brief: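 Mycelial fragments in potato dextrose broth were exposed to compound from DMSO at 200 ppm in microtiter plates. Incubation at 24 °C; growth inhibition read photometrically 4-5 days after application.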

[11] = tested on: Monographella nivalis (Microdochium nivale); test: Monographella nivalis (Microdochium nivale) / liquid culture (foot rot cereals); type: cell-based; settings: PDB, 24° C., 4-5 days after application, read-out: control of Monographella nivalis (inhibition of growth, photometric)
Method in brief: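 Cryostored conidia in potato dextrose broth were added to test compound dispensed from DMSO at 200 ppm. Plates were kept at 24° C, and growth inhibition was read photometrically 4-5 days after application.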

[12] = tested on: Fusarium culmorum; test: microbe, parasite or virus in culture; type: cell-based; settings: read-out: control of Fusarium culmorum (inhibition of growth, photometric)
[13] = tested on: Mycosphaerella arachidis (Cercospora arachidicola); test: Mycosphaerella arachidis (Cercospora arachidicola) / liquid culture (early leaf spot); type: cell-based; settings: PDB, 24° C., 4-5 days after application, read-out: control of Mycosphaerella arachidis (inhibition of growth, photometric)
Method in brief: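 Conidia suspended in potato dextrose broth and added to test compound from DMSO solution at 200 ppm. Incubated at 24 °C; growth inhibition read photometrically 4-5 days after application.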

[14] = tested on: Plasmopara viticola; test: Plasmopara viticola / grape / leaf disc preventative; type: in vivo; settings: foliar, grape vine leaf disks, inoculated 1 day after application, assessed 6-8 days after application, read-out: control of Plasmopara viticola (percent disease control compared to untreated)
[15] = tested on: Glomerella lagenarium (Colletotrichum lagenarium); test: Glomerella lagenarium (Colletotrichum lagenarium) / liquid culture (anthracnose); type: cell-based; settings: Colletotrichum orbiculare, PDB, 24° C., 3-4 days after application, read-out: control of Glomerella lagenarium (inhibition of growth, photometric)
Method in brief: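 Cryopreserved conidia suspended in potato dextrose broth were added to compound in DMSO applied at 200 ppm. Plates incubated at 24° C; growth inhibition read photometrically 3-4 days after application.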

[16] = tested on: Sclerotinia sclerotiorum; test: Sclerotinia sclerotiorum liquid culture (cottony rot / white mold); type: cell-based; settings: PDB, 24° C., 3-4 days after application, read-out: control of Sclerotinia sclerotiorum (inhibition of growth, photometric)
Method in brief: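 Mycelia fragments of Sclerotinia sclerotiorum in potato dextrose broth were added to compound in DMSO. Cultures incubated at 24° C; growth inhibition determined photometrically 3-4 days after application.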

[17] = tested on: Pythium ultimum; test: Pythium ultimum / liquid culture (seedling damping off); type: cell-based; settings: Globisporangium ultimum, potato dextrose broth, 24° C., 2-3 days after application, read-out: control of Pythium ultimum (inhibition of growth, photometric)
Method in brief: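 Test compound in DMSO at 200 ppm was incubated with mycelia fragments and oospores in potato dextrose broth at 24 °C. Growth inhibition was read photometrically 2-3 days after application.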

SMILES | pest or weed control at 200 ppm [1] [%] | inhibition at 20 ppm [2] [%] | inhibition at 20 ppm [3] [%] | inhibition at 20 ppm [4] [%] | pest or weed control at 200 ppm [5] [%] | pest or weed control at 200 ppm [6] [%] | pest or weed control at 200 ppm [7] [%] | pest or weed control at 200 ppm [8] [%] | pest or weed control at 20 ppm [9] [%] | inhibition at 20 ppm [10] [%] | melting point [°C] | inhibition at 20 ppm [11] [%] | inhibition at 20 ppm [12] [%] | inhibition at 20 ppm [13] [%] | pest or weed control at 200 ppm [14] [%] | inhibition at 20 ppm [15] [%] | inhibition at 20 ppm [16] [%] | inhibition at 20 ppm [17] [%]
CCn1c(-n2ncnc2N)nc2cncc(-c3cnn(C)c3)c21 [Compound 61, 2-[1-ethyl-7-(1-methylpyrazol-4-yl)imidazo[4,5-c]pyridin-2-yl]-1,2,4-triazol-3-amine] | ≥ 80 | ≥ 80 | ≥ 80 | ≥ 80 | ≥ 80 | ≥ 80 | ≥ 80 | ≥ 80 | – | – | – | – | – | – | – | – | – | –
Nc1ncnn1-c1nc2cnccc2n1C1CCCCC1 [Compound 2, 2-(1-cyclohexylimidazo[4,5-c]pyridin-2-yl)-1,2,4-triazol-3-amine] | ≥ 80 | ≥ 80 | ≥ 80 | ≥ 80 | – | ≥ 80 | ≥ 80 | ≥ 80 | ≥ 80 | ≥ 80 | – | – | – | – | – | – | – | –
CC=Cn1c(-n2ncnc2N)nc2cnccc21 [Compound 16, 2-(1-prop-1-enylimidazo[4,5-c]pyridin-2-yl)-1,2,4-triazol-3-amine] | – | ≥ 80 | ≥ 80 | – | – | ≥ 80 | ≥ 80 | – | – | ≥ 80 | 199 to 200 | – | – | – | – | – | – | –
CCn1c(-n2ncnc2N)nc2cncc(/C(C)=N\OC/C=C/Cl)c21 [Compound 149] | ≥ 80 | ≥ 80 | ≥ 80 | ≥ 80 | ≥ 80 | ≥ 80 | – | – | ≥ 80 | – | – | ≥ 80 | ≥ 80 | ≥ 80 | ≥ 80 | ≥ 80 | ≥ 80 | ≥ 80
CCn1c(-n2ncnc2N)nc2cncc(-c3ccc(Cl)cc3F)c21 [Compound 98, 2-[7-(4-chloro-2-fluorophenyl)-1-ethylimidazo[4,5-c]pyridin-2-yl]-1,2,4-triazol-3-amine] | ≥ 80 | ≥ 80 | ≥ 80 | ≥ 80 | ≥ 80 | ≥ 80 | – | – | ≥ 80 | ≥ 80 | – | ≥ 80 | ≥ 80 | ≥ 80 | – | ≥ 80 | ≥ 80 | –
CCn1c(-n2ncnc2N)nc2cncc(-c3cccnc3Cl)c21 [Compound 103, 2-[7-(2-chloropyridin-3-yl)-1-ethylimidazo[4,5-c]pyridin-2-yl]-1,2,4-triazol-3-amine] | ≥ 80 | ≥ 80 | ≥ 80 | ≥ 80 | ≥ 80 | ≥ 80 | ≥ 80 | ≥ 80 | – | ≥ 80 | – | ≥ 80 | – | – | – | ≥ 80 | – | –
CCn1c(-n2ncnc2N)nc2cncc(-c3ccc(C(F)(F)F)cc3)c21 [Compound 30, 2-[1-ethyl-7-[4-(trifluoromethyl)phenyl]imidazo[4,5-c]pyridin-2-yl]-1,2,4-triazol-3-amine] | ≥ 80 | ≥ 80 | ≥ 80 | – | ≥ 80 | ≥ 80 | ≥ 80 | – | – | – | – | – | – | – | – | ≥ 80 | ≥ 80 | –
CCn1c(-n2ncnc2N)nc2cncc(-c3ccccc3F)c21 [Compound 79, 2-[1-ethyl-7-(2-fluorophenyl)imidazo[4,5-c]pyridin-2-yl]-1,2,4-triazol-3-amine] | ≥ 80 | ≥ 80 | ≥ 80 | ≥ 80 | ≥ 80 | ≥ 80 | – | – | – | ≥ 80 | – | ≥ 80 | ≥ 80 | ≥ 80 | ≥ 80 | ≥ 80 | ≥ 80 | ≥ 80
